Measurements published in US12263163B2 (Kronos Bio, Inc., priority 2013, dated 2025).

Test system: human hepatocytes
Assay: Human Hepatocyte Stability Assay (predicted hepatocyte clearance)
Type: in vitro ADME
Settings: comparison table with known Syk inhibitors, head prints (units)
Method: The human […] stability of the compounds as predicted hepatocyte clearance in L/hr/kg was assessed. Compounds to be tested were diluted to 200 μM (4 μl of 10 mM DMSO stock into 196 μl ACN:H2O (50:50). Propranolol was used as a positive control, and buffer only without hepatocytes as 0% control. These were further diluted 4 μl with 891 μl KHB buffer (InVitroGRO catalog number Z99074) to provide 2× dosing solution. To each well of 24 well plate, 250 μl of the 2× dosing solution was added to each well with 250 μl of hepatocytes cells (1×10^6 viable cells/ml per well) or KHB for control samples to achieve a final compound concentration of 1 μM during incubation. The final solvent concentration was 0.01% DMSO and 0.25% ACN. The culture plate was placed on a rocker and incubated at 37° C., 5% CO2. Samples were collected at time 0, 1, 3, and 6 hours. The loss of parent compound was determined using LC-MS methods against a standard curve.

Going from `Nc1cncc(-c2cn3ccnc3c(Nc3ccc(N4CCN(C5COC5)CC4)cc3)n2)n1` [Ex.-2, 6-(6-aminopyrazin-2-yl)-N-(4-(4-(oxetan-3-yl)piperazin-1-yl)phenyl)imidazo[1,2-a]pyrazin-8-amine] to `Cc1ncc(-c2cn3ccnc3c(Nc3ccc(N4CCN(C5COC5)CC4)cc3)n2)nc1N` [Ex.-1, 6-(6-amino-5-methylpyrazin-2-yl)-N-(4-(4-(oxetan-3-yl)piperazin-1-yl)phenyl)imidazo[1,2-a]pyrazin-8-amine], the “Hheps CL” value rises from 0.917 mL/min/kg to 2 mL/min/kg (2.2-fold).

`Nc1cncc(-c2cn3ccnc3c(Nc3ccc(N4CCN(CC(CO)CO)CC4)cc3)n2)n1` [Ex.-6, 2-((4-(4-((6-(6-aminopyrazin-2-yl)imidazo[1,2-a]pyrazin-8-yl)amino)phenyl)piperazin-1-yl)methyl)propane-1,3-diol] and `Nc1cncc(-c2cn3ccnc3c(Nc3ccc(N4CCO[C@@H](CO)C4)cc3)n2)n1` [Ex.-3, (R)-(4-(4-((6-(6-aminopyrazin-2-yl)imidazo[1,2-a]pyrazin-8-yl)amino)phenyl)morpholin-2-yl)methanol] are within 1.5-fold of each other in “Hheps CL” value: 1.3 mL/min/kg for the first, 1.5 mL/min/kg for the second.

`Cc1c(-c2cncc(N)n2)nc(Nc2ccc(N3CCN(C4COC4)CC3)cc2)c2nccn12` [Ex.-4, 6-(6-aminopyrazin-2-yl)-5-methyl-N-(4-(4-(oxetan-3-yl)piperazin-1-yl)phenyl)imidazo[1,2-a]pyrazin-8-amine] and `Nc1cncc(-c2cn3ccnc3c(Nc3ccc(N4CCN(C5COC5)CC4)c(OCCO)c3)n2)n1` [Ex.-5, 2-(5-((6-(6-aminopyrazin-2-yl)imidazo[1,2-a]pyrazin-8-yl)amino)-2-(4-(oxetan-3-yl)piperazin-1-yl)phenoxy)ethanol] are within 1.5-fold of each other in “Hheps CL” value: 1.3 mL/min/kg for the first, 1.2 mL/min/kg for the second.

`Nc1cncc(-c2cn3ccnc3c(Nc3ccc(N4CCOCC4)cc3)n2)c1` [6-(5-aminopyridin-3-yl)-N-(4-morpholinophenyl)imidazo[1,2-a]pyrazin-8-amine, reference compound] and `Cc1ncc(-c2cn3ccnc3c(Nc3ccc(N4CCOCC4)cc3)n2)cc1N` [6-(5-amino-6-methylpyridin-3-yl)-N-(4-morpholinophenyl)imidazo[1,2-a]pyrazin-8-amine, reference compound] are within 1.5-fold of each other in “Hheps CL” value: 11.3 mL/min/kg for the first, 13.3 mL/min/kg for the second.

Compared with `Cc1ncc(-c2cn3ccnc3c(Nc3ccc(N4CCN(C5COC5)CC4)c(OCCO)c3)n2)nc1N` [Ex.-7, 2-(5-((6-(6-amino-5-methylpyrazin-2-yl)imidazo[1,2-a]pyrazin-8-yl)amino)-2-(4-(oxetan-3-yl)piperazin-1-yl)phenoxy)ethanol], `COc1ccc(Nc2nc(-c3ccc(N)nc3)cn3ccnc23)cc1OC` [6-(6-aminopyridin-3-yl)-N-(3,4-dimethoxyphenyl)imidazo[1,2-a]pyrazin-8-amine, reference compound] is 18-fold higher in “Hheps CL” value: 0.83 mL/min/kg for the first, 15 mL/min/kg for the second.

`COc1ccc(Nc2nc(-c3cccc(N)c3)cn3ccnc23)cc1OC` [6-(3-aminophenyl)-N-(3,4-dimethoxyphenyl)imidazo[1,2-a]pyrazin-8-amine, reference compound] was tested, and the “Hheps CL” value was 4 mL/min/kg.
